Key:
[1] = target: Serine/threonine-protein kinase LATS1 (Homo sapiens) (UniProt O95835); assay: Inhibition of LATS1 (unknown origin) assessed as remaining activity at 1 uM by Kinome scan method relative to control
[2] = target: Macrophage-stimulating protein receptor (Homo sapiens) (UniProt Q04912); assay: Inhibition of MST1R (unknown origin) assessed as remaining activity at 1 uM by Kinome scan method relative to control
[3] = target: T1, Mitogen-activated protein kinase kinase kinase kinase 2 (Homo sapiens) (UniProt Q12851); assay: Inhibition of MAP4K2 (unknown origin) assessed as remaining activity at 1 uM by Kinome scan method relative to control
T1 sequence (whole entry): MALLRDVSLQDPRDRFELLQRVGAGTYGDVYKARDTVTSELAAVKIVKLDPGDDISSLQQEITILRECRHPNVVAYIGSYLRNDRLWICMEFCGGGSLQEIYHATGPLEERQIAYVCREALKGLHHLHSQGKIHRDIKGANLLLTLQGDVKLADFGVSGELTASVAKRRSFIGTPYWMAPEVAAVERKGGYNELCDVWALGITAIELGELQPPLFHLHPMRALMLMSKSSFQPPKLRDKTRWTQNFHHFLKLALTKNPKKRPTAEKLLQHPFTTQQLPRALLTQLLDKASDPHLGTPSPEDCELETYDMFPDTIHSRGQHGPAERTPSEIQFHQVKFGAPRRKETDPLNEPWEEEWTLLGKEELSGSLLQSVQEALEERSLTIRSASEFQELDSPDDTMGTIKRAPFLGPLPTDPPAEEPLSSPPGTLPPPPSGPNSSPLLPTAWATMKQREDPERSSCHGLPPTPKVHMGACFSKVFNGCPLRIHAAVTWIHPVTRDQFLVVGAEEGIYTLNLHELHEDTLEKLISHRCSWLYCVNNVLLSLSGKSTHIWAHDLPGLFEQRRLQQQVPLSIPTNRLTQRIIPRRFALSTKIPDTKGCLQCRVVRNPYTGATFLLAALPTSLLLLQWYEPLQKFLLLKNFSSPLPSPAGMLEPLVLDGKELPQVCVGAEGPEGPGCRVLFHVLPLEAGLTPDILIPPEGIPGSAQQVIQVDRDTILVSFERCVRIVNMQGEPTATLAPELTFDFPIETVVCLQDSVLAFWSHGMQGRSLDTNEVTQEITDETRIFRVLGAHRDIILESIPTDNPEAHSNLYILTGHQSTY

[4] = target: Serine/threonine-protein kinase MRCK beta (Homo sapiens) (UniProt Q9Y5S2); assay: Inhibition of MRCKB (unknown origin) assessed as remaining activity at 1 uM by Kinome scan method relative to control
[5] = target: Serine/threonine-protein kinase MARK2 (Homo sapiens) (UniProt Q7KZI7); assay: Inhibition of MARK2 (unknown origin) assessed as remaining activity at 1 uM by Kinome scan method relative to control
Chain of Serine/threonine-protein kinase MARK2 (Homo sapiens) (Q7KZI7 whole entry): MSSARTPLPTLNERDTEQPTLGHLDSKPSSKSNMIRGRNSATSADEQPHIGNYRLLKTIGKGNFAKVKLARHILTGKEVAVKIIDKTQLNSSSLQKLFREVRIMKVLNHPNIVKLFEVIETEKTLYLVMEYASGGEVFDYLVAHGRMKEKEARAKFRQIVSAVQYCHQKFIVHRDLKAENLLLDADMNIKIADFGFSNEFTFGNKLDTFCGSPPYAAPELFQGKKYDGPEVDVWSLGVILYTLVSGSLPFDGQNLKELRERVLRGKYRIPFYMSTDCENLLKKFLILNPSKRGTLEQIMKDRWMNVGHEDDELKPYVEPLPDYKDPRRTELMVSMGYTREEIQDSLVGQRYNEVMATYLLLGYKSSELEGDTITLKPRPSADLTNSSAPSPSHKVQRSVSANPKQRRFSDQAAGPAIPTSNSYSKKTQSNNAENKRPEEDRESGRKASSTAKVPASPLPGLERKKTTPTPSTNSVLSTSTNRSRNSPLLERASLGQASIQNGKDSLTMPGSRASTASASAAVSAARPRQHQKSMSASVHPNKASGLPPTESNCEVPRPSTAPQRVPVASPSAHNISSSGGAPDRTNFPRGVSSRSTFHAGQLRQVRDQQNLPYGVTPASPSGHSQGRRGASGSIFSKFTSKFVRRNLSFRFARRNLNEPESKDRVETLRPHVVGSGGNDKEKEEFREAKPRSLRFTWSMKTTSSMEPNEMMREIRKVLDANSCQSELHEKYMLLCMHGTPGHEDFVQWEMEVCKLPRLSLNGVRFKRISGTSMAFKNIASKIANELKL

[6] = target: RAF proto-oncogene serine/threonine-protein kinase (Homo sapiens) (UniProt P04049); assay: Inhibition of RAF1 (unknown origin) assessed as remaining activity at 1 uM by Kinome scan method relative to control
[7] = target: TGF-beta receptor type-2 (Homo sapiens) (UniProt P37173); assay: Inhibition of TGFBR2 (unknown origin) assessed as remaining activity at 1 uM by Kinome scan method relative to control
Chain of TGF-beta receptor type-2 (Homo sapiens) (P37173 whole entry): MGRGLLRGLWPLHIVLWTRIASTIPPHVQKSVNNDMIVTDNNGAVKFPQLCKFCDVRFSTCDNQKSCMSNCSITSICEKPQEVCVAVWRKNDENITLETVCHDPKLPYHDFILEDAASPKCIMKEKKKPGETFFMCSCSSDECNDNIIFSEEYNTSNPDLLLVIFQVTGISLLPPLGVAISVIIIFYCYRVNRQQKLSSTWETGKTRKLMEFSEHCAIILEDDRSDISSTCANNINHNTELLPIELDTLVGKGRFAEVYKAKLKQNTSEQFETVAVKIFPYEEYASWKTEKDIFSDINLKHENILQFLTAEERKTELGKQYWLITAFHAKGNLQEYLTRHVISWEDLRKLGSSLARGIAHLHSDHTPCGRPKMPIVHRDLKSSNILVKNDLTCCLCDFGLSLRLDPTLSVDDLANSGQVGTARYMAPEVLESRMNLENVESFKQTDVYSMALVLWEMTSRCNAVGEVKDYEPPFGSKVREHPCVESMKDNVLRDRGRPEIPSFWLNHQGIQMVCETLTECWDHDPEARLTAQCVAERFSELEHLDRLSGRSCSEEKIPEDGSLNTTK

[8] = target: Serine/threonine-protein kinase PAK 5 (Homo sapiens) (UniProt Q9P286); assay: Inhibition of PAK7 (unknown origin) assessed as remaining activity at 1 uM by Kinome scan method relative to control
[9] = target: Interleukin-1 receptor-associated kinase 1 (Homo sapiens) (UniProt P51617); assay: Inhibition of IRAK1 (unknown origin) assessed as remaining activity at 1 uM by Kinome scan method relative to control
Chain of Interleukin-1 receptor-associated kinase 1 (Homo sapiens) (P51617 whole entry, looked up): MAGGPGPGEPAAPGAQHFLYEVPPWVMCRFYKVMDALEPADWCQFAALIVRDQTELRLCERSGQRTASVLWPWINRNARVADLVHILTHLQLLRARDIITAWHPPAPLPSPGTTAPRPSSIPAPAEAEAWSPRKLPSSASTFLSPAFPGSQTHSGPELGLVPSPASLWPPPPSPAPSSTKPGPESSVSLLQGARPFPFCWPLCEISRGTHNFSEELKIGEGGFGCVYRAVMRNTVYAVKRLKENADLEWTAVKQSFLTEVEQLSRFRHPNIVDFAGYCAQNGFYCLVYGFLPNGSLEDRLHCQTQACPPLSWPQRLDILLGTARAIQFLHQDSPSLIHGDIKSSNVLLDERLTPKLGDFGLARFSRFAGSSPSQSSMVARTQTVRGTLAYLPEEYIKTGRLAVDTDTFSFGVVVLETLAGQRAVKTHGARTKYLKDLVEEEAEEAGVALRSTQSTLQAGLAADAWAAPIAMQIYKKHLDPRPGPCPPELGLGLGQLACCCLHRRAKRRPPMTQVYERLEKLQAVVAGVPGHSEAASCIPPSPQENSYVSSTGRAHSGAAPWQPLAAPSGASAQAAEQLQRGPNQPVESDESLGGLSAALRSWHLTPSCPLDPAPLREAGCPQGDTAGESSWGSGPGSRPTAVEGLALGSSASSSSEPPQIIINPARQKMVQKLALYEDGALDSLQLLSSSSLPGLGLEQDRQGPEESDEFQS

[10] = target: T2, Serine/threonine-protein kinase DCLK2 (Homo sapiens) (UniProt Q8N568); assay: Inhibition of DCAMKL2 (unknown origin) assessed as remaining activity at 1 uM by Kinome scan method relative to control
T2 sequence (whole entry): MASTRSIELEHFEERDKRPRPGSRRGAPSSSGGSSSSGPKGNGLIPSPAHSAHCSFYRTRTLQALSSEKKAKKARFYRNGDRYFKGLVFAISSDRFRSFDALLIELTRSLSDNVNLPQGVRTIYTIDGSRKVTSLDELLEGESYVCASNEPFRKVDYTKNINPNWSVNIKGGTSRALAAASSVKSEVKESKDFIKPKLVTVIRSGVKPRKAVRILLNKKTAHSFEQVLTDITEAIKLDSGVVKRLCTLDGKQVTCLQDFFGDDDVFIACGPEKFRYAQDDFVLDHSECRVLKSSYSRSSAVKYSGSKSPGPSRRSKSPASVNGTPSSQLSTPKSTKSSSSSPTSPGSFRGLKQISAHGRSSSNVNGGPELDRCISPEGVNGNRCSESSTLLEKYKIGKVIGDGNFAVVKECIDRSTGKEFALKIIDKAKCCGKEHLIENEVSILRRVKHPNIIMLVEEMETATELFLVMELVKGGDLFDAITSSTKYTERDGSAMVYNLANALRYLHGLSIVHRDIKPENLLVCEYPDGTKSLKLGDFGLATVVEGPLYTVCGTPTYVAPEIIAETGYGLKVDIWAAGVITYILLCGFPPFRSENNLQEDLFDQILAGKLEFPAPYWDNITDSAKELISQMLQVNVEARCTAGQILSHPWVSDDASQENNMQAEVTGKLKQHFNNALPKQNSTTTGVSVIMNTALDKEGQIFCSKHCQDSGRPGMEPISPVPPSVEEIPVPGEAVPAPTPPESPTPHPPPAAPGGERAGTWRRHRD

[11] = target: T3, Calcium/calmodulin-dependent protein kinase type IV (Homo sapiens) (UniProt Q16566); assay: Inhibition of CAMK4 (unknown origin) assessed as remaining activity at 1 uM by Kinome scan method relative to control
T3 sequence (whole entry): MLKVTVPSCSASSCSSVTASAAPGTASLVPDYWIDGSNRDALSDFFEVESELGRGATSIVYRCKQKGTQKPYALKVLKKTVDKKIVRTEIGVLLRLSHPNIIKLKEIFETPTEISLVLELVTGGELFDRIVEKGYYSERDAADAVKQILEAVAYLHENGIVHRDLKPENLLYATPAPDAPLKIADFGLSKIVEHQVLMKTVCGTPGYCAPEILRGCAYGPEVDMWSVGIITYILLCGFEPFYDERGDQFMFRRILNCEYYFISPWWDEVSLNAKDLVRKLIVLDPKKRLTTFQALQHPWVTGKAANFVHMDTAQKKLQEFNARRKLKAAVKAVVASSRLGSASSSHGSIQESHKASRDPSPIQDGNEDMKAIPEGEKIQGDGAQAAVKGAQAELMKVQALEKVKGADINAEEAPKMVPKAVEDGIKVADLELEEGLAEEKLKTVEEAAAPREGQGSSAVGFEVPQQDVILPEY

[12] = target: Tyrosine-protein kinase JAK2 (Homo sapiens) (UniProt O60674); assay: Inhibition of JAK2 JH1 domain (unknown origin) assessed as remaining activity at 1 uM by Kinome scan method relative to control
Chain of Tyrosine-protein kinase JAK2 (Homo sapiens) (O60674 whole entry, the tested form may be a part): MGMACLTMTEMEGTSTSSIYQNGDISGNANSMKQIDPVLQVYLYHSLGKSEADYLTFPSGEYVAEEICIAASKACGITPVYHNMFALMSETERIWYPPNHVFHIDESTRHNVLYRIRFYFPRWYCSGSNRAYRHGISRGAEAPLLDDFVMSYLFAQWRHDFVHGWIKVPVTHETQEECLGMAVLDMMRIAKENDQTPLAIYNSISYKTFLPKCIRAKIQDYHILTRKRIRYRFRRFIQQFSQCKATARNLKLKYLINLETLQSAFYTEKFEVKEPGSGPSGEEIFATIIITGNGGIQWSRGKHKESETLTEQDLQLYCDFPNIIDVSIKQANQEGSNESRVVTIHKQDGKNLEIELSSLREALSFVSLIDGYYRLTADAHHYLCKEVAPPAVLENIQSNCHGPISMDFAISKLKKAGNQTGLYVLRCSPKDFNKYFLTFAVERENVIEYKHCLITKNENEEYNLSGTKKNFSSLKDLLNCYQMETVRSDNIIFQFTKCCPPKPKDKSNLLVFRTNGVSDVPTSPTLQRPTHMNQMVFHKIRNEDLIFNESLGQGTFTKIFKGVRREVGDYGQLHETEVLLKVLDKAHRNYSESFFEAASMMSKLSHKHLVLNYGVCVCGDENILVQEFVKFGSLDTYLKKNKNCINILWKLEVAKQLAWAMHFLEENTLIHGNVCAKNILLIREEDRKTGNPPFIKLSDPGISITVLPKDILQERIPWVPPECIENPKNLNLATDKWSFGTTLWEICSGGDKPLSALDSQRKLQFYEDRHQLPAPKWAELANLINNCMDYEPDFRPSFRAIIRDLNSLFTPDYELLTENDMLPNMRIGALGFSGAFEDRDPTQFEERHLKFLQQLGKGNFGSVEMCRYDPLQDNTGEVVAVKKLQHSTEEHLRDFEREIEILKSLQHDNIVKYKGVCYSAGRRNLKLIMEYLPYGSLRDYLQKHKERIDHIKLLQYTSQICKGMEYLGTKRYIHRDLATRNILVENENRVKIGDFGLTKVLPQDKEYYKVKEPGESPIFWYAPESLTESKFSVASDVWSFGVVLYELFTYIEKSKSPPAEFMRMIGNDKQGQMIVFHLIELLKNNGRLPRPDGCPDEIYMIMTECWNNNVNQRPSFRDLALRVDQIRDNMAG

Chain of Macrophage-stimulating protein receptor (Homo sapiens) (Q04912 25-304 limits assumed): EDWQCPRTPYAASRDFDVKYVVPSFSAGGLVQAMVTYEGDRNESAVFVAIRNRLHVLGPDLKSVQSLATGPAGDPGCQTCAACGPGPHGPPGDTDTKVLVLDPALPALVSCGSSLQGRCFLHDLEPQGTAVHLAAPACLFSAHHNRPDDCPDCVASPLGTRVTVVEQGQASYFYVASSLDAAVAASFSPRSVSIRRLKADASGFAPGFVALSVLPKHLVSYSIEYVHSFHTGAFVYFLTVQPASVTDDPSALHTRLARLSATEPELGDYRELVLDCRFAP
Chain of Macrophage-stimulating protein receptor (Homo sapiens) (Q04912 310-1400 limits assumed): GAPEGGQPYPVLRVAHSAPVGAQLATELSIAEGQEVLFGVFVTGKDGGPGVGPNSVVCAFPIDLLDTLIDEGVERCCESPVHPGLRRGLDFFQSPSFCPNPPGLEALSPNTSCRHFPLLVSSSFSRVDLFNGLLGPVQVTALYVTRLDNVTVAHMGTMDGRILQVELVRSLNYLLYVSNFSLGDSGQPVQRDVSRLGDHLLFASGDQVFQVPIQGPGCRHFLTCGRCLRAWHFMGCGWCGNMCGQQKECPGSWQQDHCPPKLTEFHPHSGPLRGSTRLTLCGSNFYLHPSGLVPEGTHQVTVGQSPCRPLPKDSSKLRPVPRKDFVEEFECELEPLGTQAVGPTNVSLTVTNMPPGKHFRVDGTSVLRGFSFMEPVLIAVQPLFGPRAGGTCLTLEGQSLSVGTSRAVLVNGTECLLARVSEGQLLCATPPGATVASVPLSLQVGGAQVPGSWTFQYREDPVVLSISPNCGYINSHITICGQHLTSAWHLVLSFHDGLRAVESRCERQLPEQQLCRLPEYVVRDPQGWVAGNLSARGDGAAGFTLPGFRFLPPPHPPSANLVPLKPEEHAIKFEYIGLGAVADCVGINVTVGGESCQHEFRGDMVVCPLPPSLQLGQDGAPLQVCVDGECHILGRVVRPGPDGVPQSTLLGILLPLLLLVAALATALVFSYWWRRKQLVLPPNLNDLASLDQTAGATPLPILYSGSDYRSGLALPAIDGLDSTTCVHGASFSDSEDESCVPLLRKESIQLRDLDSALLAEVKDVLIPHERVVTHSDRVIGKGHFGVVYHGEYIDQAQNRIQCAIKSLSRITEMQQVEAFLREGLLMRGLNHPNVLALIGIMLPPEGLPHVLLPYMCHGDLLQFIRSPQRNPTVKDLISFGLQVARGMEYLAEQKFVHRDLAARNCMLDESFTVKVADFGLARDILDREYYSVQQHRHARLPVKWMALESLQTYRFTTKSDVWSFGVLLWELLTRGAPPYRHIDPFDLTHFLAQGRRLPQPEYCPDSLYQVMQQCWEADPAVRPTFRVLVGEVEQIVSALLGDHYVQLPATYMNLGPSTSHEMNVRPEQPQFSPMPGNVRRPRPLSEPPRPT

SMILES | Activity [1] | Activity [2] | Activity [3] | Activity [4] | Activity [5] | Activity [6] | Activity [7] | Activity [8] | Activity [9] | Activity [10] | Activity [11] | Activity [12]
Nc1ccccc1Nc1ccc2c(c1)CCc1ccccc1C2=O | 96% | 97% | 99% | 71% | 72% | 93% | 93% | 91% | 75% | 98% | 90% | 80%
O=C1c2ccc(Nc3ccc(F)cc3F)cc2CCc2ccc(OC[C@H](O)CO)cc21 [Skepinone-L] | 90% | 79% | 94% | 97% | 97% | 100% | 100% | 86% | 100% | 88% | 90% | 100%
